Assays:
KRas G12D mutant = assay: Ras GTP Binding Domain Inhibition Assay (Ras Superfamily Assay); conditions: for KRas G12D mutant + SOS: % inh.: with SOS; for KRas G12D mutant: % inh.: without SOS
How it was run: (§1)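 Ni-plate capture of His-tagged protein (10-30 μg/mL, o/n 4° C); cpd 20 μM or dilution series, 1% DMSO, 3 h RT ± Sos 556-1049 last h; 100 nM Cy-labelled GTP 45 min RT; 3× wash; fluorescence read.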

KRas wild type = assay: as above; conditions: for KRas wild type + SOS: % inh.: with SOS; for KRas wild type: % inh.: without SOS
How it was run: as §1

[1] = system: MiaPaca-2 (expressing KRAS G12C mutant); assay: Proliferation Assay (Cell Viability Assay); format: cell-based; conditions: Homo sapiens, MIA PaCa-2; read-out: Proliferation in MiaPaca-2: IC50
How it was run: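 After 2–4 days' exposure at 37 °C, 5% CO2 to a single 10 μM final concentration or a dilution series (IC50), percent proliferation inhibition was derived from CellTiter 96 Aqueous One viability readings. The medium contained 0.3% DMSO and 10% FBS. KRAS G12C MiaPaca-2 cells were plated at 2000–5000/well the day before.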

TNF-alpha = TNF-alpha Quantification Assay (ELISA), LPS-stimulated RAW 264.7; format: cell-based; conditions: Mus musculus, RAW264.7; at 10 μM; read-out: TNFα: % inh.

Row | SMILES | KRas G12D mutant + SOS: % inh. (KRas G12D mutant; at 20 μM) | KRas G12D mutant: % inh. (KRas G12D mutant; at 20 μM) | KRas wild type + SOS: % inh. (KRas wild type; at 20 μM) | KRas wild type: % inh. (KRas wild type; at 20 μM) | IC50 [1] [nM] | KRas G12D mutant + SOS: % inh. (KRas G12D mutant; 20 μM compound) | KRas G12D mutant: % inh. (KRas G12D mutant; 20 μM compound) | KRas wild type + SOS: % inh. (KRas wild type; 20 μM compound) | KRas wild type: % inh. (KRas wild type; 20 μM compound) | inhibition at 10 µM (TNF-alpha) [%]
1 | COc1cccc(-c2cn3nc(-c4nccn4C)nc(N[C@@H]4CC[C@H](OC)C4)c3c2-c2ccccc2)c1C (racemic) [Compound 271, rac 6-(3-Methoxy-2-methylphenyl)-N-((1R,3S)-3-methoxycyclopentyl)-2-(1-methyl-1H-imidazol-2-yl)-5-phenylpyrrolo[2,1-f][1,2,4]triazin-4-amine] | B (B = 26-49% inhibition) | B (B = 26-49% inhibition) | A (A = 1-25% inhibition) | B (B = 26-49% inhibition) | 150 to 500 |  |  |  |  | 75 to 100
2 | CC(C)n1ccc(-c2cn3nc(-c4nccn4C)nc(O)c3c2-c2ccccc2)n1 [Compound 17, 6-(1-Isopropyl-1H-pyrazol-3-yl)-2-(1-methyl-1H-imidazol-2-yl)-5-phenylpyrrolo[2,1-f][1,2,4]triazin-4-ol] |  |  |  |  | > 1000 | C (C = 50-75% inhibition) | C (C = 50-75% inhibition) | C (C = 50-75% inhibition) | C (C = 50-75% inhibition) | 25 to 49
3 | COc1cc(Nc2nc(-c3nccn3C)nn3cc(-c4ccn(C(C)C)n4)c(-c4ccccc4)c23)ncn1 [Compound 22, 6-(1-Isopropyl-1H-pyrazol-3-yl)-N-(6-methoxypyrimidin-4-yl)-2-(1-methyl-1H-imidazol-2-yl)-5-phenylpyrrolo[2,1-f][1,2,4]triazin-4-amine] |  |  |  |  | 150 to 500 | B (B = 26-49% inhibition) | B (B = 26-49% inhibition) | A (A = 1-25% inhibition) | B (B = 26-49% inhibition) | 0
4 | Cc1ccn2nc(-c3nccn3C)nc(N)c12.O=C(O)C(F)(F)F [Compound 37, 5-Methyl-2-(1-methyl-1H-imidazol-2-yl)pyrrolo[2,1-f][1,2,4]triazin-4-amine trifluoroacetic acid salt] |  |  |  |  | > 1000 | B (B = 26-49% inhibition) | B (B = 26-49% inhibition) | B (B = 26-49% inhibition) | B (B = 26-49% inhibition) | 0
5 | Cn1ccnc1-c1nc(O)c2c(-c3ccccc3)ccn2n1 [Compound 39, 2-(1-Methyl-1H-imidazol-2-yl)-5-phenylpyrrolo[2,1-f][1,2,4]triazin-4-ol] |  |  |  |  | > 1000 | A (A = 1-25% inhibition) | A (A = 1-25% inhibition) | A (A = 1-25% inhibition) | A (A = 1-25% inhibition) | 0
6 | Cc1c(-c2ccn(C(C)C)n2)cn2nc(-c3nccn3C)nc(Nc3noc(C4CC4)n3)c12 [Compound 75, 5-Cyclopropyl-N-(6-(1-isopropyl-1H-pyrazol-3-yl)-5-methyl-2-(1-methyl-1H-imidazol-2-yl)pyrrolo[2,1-f][1,2,4]triazin-4-yl)-1,2,4-oxadiazol-3-amine] |  |  |  |  | > 1000 | A (A = 1-25% inhibition) | B (B = 26-49% inhibition) | A (A = 1-25% inhibition) | A (A = 1-25% inhibition) | 1 to 24
7 | Cc1c(-c2ccn(C(C)C)n2)cn2nc(-c3nccn3C)nc(Nc3nnc(C4CC4)[nH]3)c12 [Compound 81, N-(5-Cyclopropyl-4H-1,2,4-triazol-3-yl)-6-(1-isopropyl-1H-pyrazol-3-yl)-5-methyl-2-(1-methyl-1H-imidazol-2-yl)pyrrolo[2,1-f][1,2,4]triazin-4-amine] |  |  |  |  | 150 to 500 | C (C = 50-75% inhibition) | D (D = 76-100% inhibition) | B (B = 26-49% inhibition) | C (C = 50-75% inhibition) | 50 to 74

The next lines start with results.

Row | KRas G12D mutant + SOS: % inh. (KRas G12D mutant; at 20 μM) | KRas G12D mutant: % inh. (KRas G12D mutant; at 20 μM) | KRas wild type + SOS: % inh. (KRas wild type; at 20 μM) | KRas wild type: % inh. (KRas wild type; at 20 μM) | IC50 [1] [nM] | KRas G12D mutant + SOS: % inh. (KRas G12D mutant; 20 μM compound) | KRas G12D mutant: % inh. (KRas G12D mutant; 20 μM compound) | KRas wild type + SOS: % inh. (KRas wild type; 20 μM compound) | KRas wild type: % inh. (KRas wild type; 20 μM compound) | SMILES | inhibition at 10 µM (TNF-alpha) [%]
8 |  |  |  |  | > 1000 | 0 (0 = 0% inhibition) | A (A = 1-25% inhibition) | 0 (0 = 0% inhibition) | A (A = 1-25% inhibition) | COc1cccc(Nc2nc(-c3nccn3C)nn3cc(-c4ccn(C(C)C)n4)c(C)c23)n1 [Compound 7, 6-(1-Isopropyl-1H-pyrazol-3-yl)-N-(6-methoxypyridin-2-yl)-5-methyl-2-(1-methyl-1H-imidazol-2-yl)pyrrolo[2,1-f][1,2,4]triazin-4-amine] | 0
9 |  |  |  |  | < 150 | 0 (0 = 0% inhibition) | C (C = 50-75% inhibition) | 0 (0 = 0% inhibition) | B (B = 26-49% inhibition) | CCc1nc(Nc2nc(-c3nccn3C)nn3cc(-c4ccn(C(C)C)n4)c(C)c23)nn1C [Compound 76, N-(5-Ethyl-1-methyl-1H-1,2,4-triazol-3-yl)-6-(1-isopropyl-1H-pyrazol-3-yl)-5-methyl-2-(1-methyl-1H-imidazol-2-yl)pyrrolo[2,1-f][1,2,4]triazin-4-amine] | 25 to 49
10 |  |  |  |  | > 1000 | B (B = 26-49% inhibition) | D (D = 76-100% inhibition) | C (C = 50-75% inhibition) | C (C = 50-75% inhibition) | Cc1c(-c2ccn(C(C)C)n2)cn2nc(-c3nccn3C)nc(Nc3cnn(C(C)C)n3)c12 [Compound 77, 6-(1-Isopropyl-1H-pyrazol-3-yl)-N-(2-isopropyl-2H-1,2,3-triazol-4-yl)-5-methyl-2-(1-methyl-1H-imidazol-2-yl)pyrrolo[2,1-f][1,2,4]triazin-4-amine] | 25 to 49
11 |  |  |  |  | 150 to 500 | D (D = 76-100% inhibition) | D (D = 76-100% inhibition) | D (D = 76-100% inhibition) | D (D = 76-100% inhibition) | Cc1c(-c2ccn(C(C)C)n2)cn2nc(-c3nccn3C)nc(Nc3cn(C(C)C)nn3)c12 [Compound 78, N-(1-Isopropyl-1H-1,2,3-triazol-4-yl)-6-(1-isopropyl-1H-pyrazol-3-yl)-5-methyl-2-(1-methyl-1H-imidazol-2-yl)pyrrolo[2,1-f][1,2,4]triazin-4-amine] | 25 to 49
12 |  |  |  |  | < 150 | C (C = 50-75% inhibition) | D (D = 76-100% inhibition) | B (B = 26-49% inhibition) | C (C = 50-75% inhibition) | COCc1csc(Nc2nc(-c3nccn3C)nn3cc(-c4ccn(C(C)C)n4)c(C)c23)n1 [Compound 79, N-(6-(1-Isopropyl-1H-pyrazol-3-yl)-5-methyl-2-(1-methyl-1H-imidazol-2-yl)pyrrolo[2,1-f][1,2,4]triazin-4-yl)-4-(methoxymethyl)thiazol-2-amine] | 25 to 49
13 |  |  |  |  | > 1000 | 0 (0 = 0% inhibition) | A (A = 1-25% inhibition) | A (A = 1-25% inhibition) | A (A = 1-25% inhibition) | COc1ncc(Nc2nc(-c3nccn3C)nn3cc(-c4ccn(C(C)C)n4)c(C)c23)cn1 [Compound 80, 6-(1-Isopropyl-1H-pyrazol-3-yl)-N-(2-methoxypyrimidin-5-yl)-5-methyl-2-(1-methyl-1H-imidazol-2-yl)pyrrolo[2,1-f][1,2,4]triazin-4-amine] | 0
14 |  |  |  |  | < 150 | B (B = 26-49% inhibition) | C (C = 50-75% inhibition) | 0 (0 = 0% inhibition) | C (C = 50-75% inhibition) | COCc1noc(Nc2nc(-c3nccn3C)nn3cc(-c4ccn(C(C)C)n4)c(C)c23)n1 [Compound 82, N-(6-(1-Isopropyl-1H-pyrazol-3-yl)-5-methyl-2-(1-methyl-1H-imidazol-2-yl)pyrrolo[2,1-f][1,2,4]triazin-4-yl)-3-(methoxymethyl)-1,2,4-oxadiazol-5-amine] | 25 to 49
15 |  |  |  |  | 150 to 500 | D (D = 76-100% inhibition) | D (D = 76-100% inhibition) | C (C = 50-75% inhibition) | D (D = 76-100% inhibition) | COc1cnc(Nc2nc(-c3nccn3C)nn3cc(-c4ccn(C(C)C)n4)c(C)c23)cn1 [Compound 83, 6-(1-Isopropyl-1H-pyrazol-3-yl)-N-(5-methoxypyrazin-2-yl)-5-methyl-2-(1-methyl-1H-imidazol-2-yl)pyrrolo[2,1-f][1,2,4]triazin-4-amine] | 1 to 24
16 |  |  |  |  | > 1000 | A (A = 1-25% inhibition) | 0 (0 = 0% inhibition) | 0 (0 = 0% inhibition) | 0 (0 = 0% inhibition) | COc1ncccc1Nc1nc(-c2nccn2C)nn2cc(-c3ccn(C(C)C)n3)c(C)c12 [Compound 85, 6-(1-Isopropyl-1H-pyrazol-3-yl)-N-(2-methoxypyridin-3-yl)-5-methyl-2-(1-methyl-1H-imidazol-2-yl)pyrrolo[2,1-f][1,2,4]triazin-4-amine] | 50 to 74
